{"source": "paper PMC12066977", "about": "“Alkyl Tail Variation on Chalcone‐Based Quaternary Pyridinium Salts as Rule‐of‐Thumb for Antimicrobial Activity” (Archiv Der Pharmazie, 2025)", "key": {"[1]": {"test_system": "E. coli", "assay": "Colistin association assay", "type": "cell-based, Escherichia coli", "conditions": "colistin at sub-inhibitory concentration (MIC/8 = 0.027 µM), versus compound alone", "protocol": "This is a confirmation of the ability of these new QPySs to also affect Gram‐negative proliferation once they pass through the OM.\nThe dry powder of the chalcone‐based QPySs was resuspended in dimethylsulfoxide (DMSO) at 20 mM and used as stock solutions. For biological investigations, compounds were used in the range 100–0.78 µM, and the solvent in the corresponding percentage range. The following commercially available antimicrobials and toxic clinical drugs were purchased from Sigma‐Aldrich (St. Louis, MO, USA), dissolved in water, and used as reference controls. Gentamicin and ampicillin were used in the range 107.69–0.82 µM and 143.23–1.12 µM, respectively; the colistin was used at 0.03 µM in association with the chalcone‐based QASs with E. coli. The fluconazole was used in the assays with C. albicans in the range 3.27–0.03 µM. […]\nIn short, microbial inocula were prepared at 0.5 McFarland in PBS and, subsequently, bacterial suspensions were diluted 1:200 in Mueller–Hinton broth (Sigma‐Aldrich, St. Louis, MO, USA), while fungal inoculum was diluted 1:20 in RPMI‐1640 medium (Gibco®, ThermoFisher Scientific Inc., Waltham, MA, USA), containing glucose 2%, 0.3% levo‐glutamine buffered to pH 7.0 with 0.165 M 3‐(N‐morpholino) propanesulfonic acid (MOPS). […] The plate was incubated at 37°C for 24 h, and subsequently the optical density at 630 nm (OD630nm) was spectrophotometrically measured. […]"}, "[2]": {"test_system": "human red blood cells (hRBCs)", "assay": "Hemolytic activity assay", "type": "cell-based", "conditions": "25 µM, 90 min, 37°C", "protocol": "The hemolytic activity of some selected compounds was evaluated as the amount of hemoglobin released by the disruption of human red blood cells (hRBCs). For the experiments, fresh hRBCs were collected by centrifugation at 1500g for 10 min, washed three times with PBS, and resuspended to a final concentration of 4% w/v hRBCs in PBS. Then, 100 µL of hRBCs suspension and an equal volume of the twofold dilutions of the antimicrobial peptides were mixed in a 96‐well plate and incubated for 90 min at 37°C. After centrifugation at 1000g for 5 min, the supernatants were transferred into a clear 96‐well plate, and OD405nm was read. Untreated hRBCs (incubated with PBS) and hRBCs incubated with 1% Triton X‐100 were employed as negative and positive controls, respectively. The hemolysis percentage was calculated as [OD405nm (sample) − OD4_05nm (negative control)]/[OD405nm (positive control) − OD405nm (negative control)] × 100. Minimal hemolytic concentrations (MHCs) were defined as the compound concentration causing 10% hemolysis. Three independent experiments were performed in triplicate."}}, "data": [{"smiles": "C#CCOc1ccc(C(=O)/C=C/c2ccc[n+](CCCCCCCCCCCCCC)c2)c(OCC#C)c1.[Br-]", "note": "[Compound 6, (E)‐3‐{3‐[2,4‐Bis(prop‐2‐yn‐1‐yloxy)phenyl]‐3‐oxoprop‐1‐en‐1‐yl}‐1‐tetradecylpyridin‐1‐ium bromide]", "values": [{"measurement": "MIC decrease for E. coli in association with colistin", "setting": "[1]", "result": "fourfold"}, {"measurement": "hemolytic activity", "setting": "[2]", "result": 88.7, "unit": "%"}]}]}
